From US20080008760A1, “Functionalized carbon nanotubes, a process for preparing the same and their use in medicinal chemistry” (priority 2003, published 2008)

How the values were obtained:
[1] = system: Murine 3T3 cells (ATCC CCL-92); experiment: Fluorescent and confocal microscopy: penetration of FITC functionalized nanotubes into cells; type: cell-based; conditions: 1 μM, 5 μM and 10 μM; FIG. 3: 40 minutes incubation
[2] = system: Murine 3T3 cells (ATCC CCL-92); experiment: Cytofluorometry: penetration of FITC functionalized nanotube into cells; type: cell-based; conditions: 1 μM, 5 μM and 10 μM, 1 hour

O=C(O)c1cc(NC(=S)NCCOCCOCCN2CCCC2)ccc1-c1c2ccc(=O)cc-2oc2cc(O)ccc12 [formula (L)]
penetration into 3T3 cells (fluorescence microscopy, FIG. 3) [1]: have penetrated into 3T3 cells | penetration into 3T3 cells (cytofluorometry) [2]: readily penetrate into 3T3 cells
